Measured values as given in patent publication US10119168B2, “Methods for the treatment of kidney fibrosis” (priority 2014, dated 2018).

Tested on: mouse kidney
Assay: Folic acid nephropathy model, High dose vs Low dose FA (histology, qRT-PCR)
Details: High dose group compared to Low dose group, day 14
Method: Mice were sacrificed at 1, 2, 3, 7 and 14 days following administration. […] All mice were sacrificed at 14 days.
Formalin fixed, paraffin embedded kidney sections were Masson Trichrome's stained and evaluated by a renal pathologist under a light microscope in blinded fashion relative to sample group. Percent area of fibrosis relative to the total section area was evaluated. Sirius red staining of the […] sections was performed at the Michigan State University Investigative Histopathology Laboratory.
Total RNA was extracted from frozen kidney tissue using TRIzol reagent (Invitrogen). Following RNA concentration measurement by NanoDrop spectrophotometer (Thermo Fischer Scientific), 1 μg RNA was used for cDNA preparation using QuantiTect Reverse Transcription Kit from Qiagen (Valencia, Calif.). qRT-PCR using QuantiFast SYBR Green PCR Kit (Qiagen) was performed in 384-well plates on an Applied Biosystems 7900HT Fast Real-Time PCR System instrument with the following temperature profile: 3 min enzyme activation at 95° C. followed by 40 cycles of 95° C. for 10 s, and 55° C. for 30 s. Primer pairs used are listed in Supplementary Table 1. Gapdh was used as reference gene for normalization. The SDS 2.4 software (Applied Biosystems) was used to compute the threshold cycle (Cq) and the relative expression for an mRNA was assessed using the 2^−ΔCq method.

`Nc1nc2ncc(CNc3ccc(C(=O)N[C@@H](CCC(=O)O)C(=O)O)cc3)nc2c(=O)[nH]1` [FA, folic acid] was tested. Which “candidate fibrosis markers mRNA levels” value did it give?
The value was “Nine out of ten candidate fibrosis markers showed significantly (p<0.05) higher mRNA levels”.
